# According to patent US20260035382A1, “COMPOUNDS AS SUMO ACTIVATING ENZYME INHIBITORS” (WIGEN BIOMEDICINE TECHNOLOGY (SHANGHAI) CO., LTD., priority 2022, published 2026):
# Read-outs that look alike come from different tables or passages of the source.
# Target: SAE (Homo sapiens (Human), UniProt Q9UBT2)
# Assay: In vitro inhibitory activity assay against SAE (SUMO-2/3 immunofluorescence in HCT116 cells)
# Type: cell-based
# Conditions: 6 h incubation, read-out: SUMO IF IC50
# Outline: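 HCT116 cells treated with compounds for 6 h at 37 °C, then fixed, permeabilized and immunostained for SUMO-2/3 with FITC secondary detection. Fluorescence compared with DMSO control to give inhibition rate and IC50.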
# Sequence of SAE (Q9UBT2 whole entry): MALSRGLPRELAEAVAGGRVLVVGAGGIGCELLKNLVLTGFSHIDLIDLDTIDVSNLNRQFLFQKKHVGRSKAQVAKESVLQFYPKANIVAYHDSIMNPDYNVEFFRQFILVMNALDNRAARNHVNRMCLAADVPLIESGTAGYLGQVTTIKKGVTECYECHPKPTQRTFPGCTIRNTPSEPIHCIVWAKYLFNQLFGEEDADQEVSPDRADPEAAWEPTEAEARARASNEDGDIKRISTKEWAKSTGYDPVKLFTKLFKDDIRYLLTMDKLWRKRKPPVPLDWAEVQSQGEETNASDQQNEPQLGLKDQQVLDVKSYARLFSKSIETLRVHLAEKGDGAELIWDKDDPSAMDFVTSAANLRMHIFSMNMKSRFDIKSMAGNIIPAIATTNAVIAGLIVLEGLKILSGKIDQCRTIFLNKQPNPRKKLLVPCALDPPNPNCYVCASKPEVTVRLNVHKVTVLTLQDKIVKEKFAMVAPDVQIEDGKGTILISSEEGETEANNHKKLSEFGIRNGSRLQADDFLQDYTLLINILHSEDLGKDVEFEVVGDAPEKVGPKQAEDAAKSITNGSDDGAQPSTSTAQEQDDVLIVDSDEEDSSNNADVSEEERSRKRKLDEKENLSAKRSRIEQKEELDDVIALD
# Sequence of SAE (Q9UBE0 whole entry partner): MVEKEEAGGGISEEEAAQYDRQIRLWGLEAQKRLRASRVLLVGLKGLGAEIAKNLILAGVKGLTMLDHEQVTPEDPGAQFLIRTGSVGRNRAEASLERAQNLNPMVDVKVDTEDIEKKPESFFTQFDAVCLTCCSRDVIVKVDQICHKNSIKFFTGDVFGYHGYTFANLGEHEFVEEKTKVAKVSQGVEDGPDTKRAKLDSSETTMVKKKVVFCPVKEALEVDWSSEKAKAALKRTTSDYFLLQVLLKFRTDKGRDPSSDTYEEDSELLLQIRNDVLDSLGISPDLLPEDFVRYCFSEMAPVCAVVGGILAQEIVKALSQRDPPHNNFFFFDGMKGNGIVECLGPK
Compound,IC50 (class symbols) [nM],IC50 (numeric values) [nM]
NS(=O)(=O)OC[C@H]1C[C@@H](Nc2ncncc2C(=O)c2cc3c(s2)C(F)(F)C[C@@]32NCCc3ccc(Cl)cc32)C[C@@H]1O [Compound 161],> 200,–
NS(=O)(=O)OC[C@H]1C[C@@H](Nc2ncncc2C(=O)c2cc3c(s2)C(F)(F)C[C@]32NCCc3ccc(Cl)cc32)C[C@@H]1O [Compound 162],50 to 200,–
NS(=O)(=O)OC[C@H]1C[C@@H](Nc2ncncc2C(=O)c2cc3c(s2)CCCC32NC(=O)Cc3ccc(Cl)cc32)C[C@@H]1O (stereo partly shown) [Compound 163],> 200,–
NS(=O)(=O)OC[C@H]1C[C@@H](Nc2ncncc2C(=O)c2cc3c(s2)CCC[C@@]32NC(=O)Cc3ccc(Cl)cc32)C[C@@H]1O [Compound 164],> 200,–
NS(=O)(=O)OC[C@H]1C[C@@H](Nc2ncncc2C(=O)c2cc3c(s2)CCC[C@]32NC(=O)Cc3ccc(Cl)cc32)C[C@@H]1O [Compound 165],> 200,–
NS(=O)(=O)OC[C@H]1C[C@@H](Nc2ncncc2C(=O)c2cc3c(s2)C(=O)CC32NCCc3ccc(Cl)cc32)C[C@@H]1O (stereo partly shown) [Compound 166],50 to 200,–
NS(=O)(=O)OC[C@H]1C[C@@H](Nc2ncncc2C(=O)c2cc3c(s2)C(=O)C[C@@]32NCCc3ccc(Cl)cc32)C[C@@H]1O [Compound 167],> 200,–
NS(=O)(=O)OC[C@H]1C[C@@H](Nc2ncncc2C(=O)c2cc3c(s2)C(=O)C[C@]32NCCc3ccc(Cl)cc32)C[C@@H]1O [Compound 168],50 to 200,–
NS(=O)(=O)OC[C@H]1C[C@@H](Nc2ncncc2C(=O)c2cc3c(s2)C=C[C@@]32NCCc3ccc(Cl)cc32)C[C@@H]1O [Compound 175],–,> 1000
NS(=O)(=O)OC[C@H]1C[C@@H](Nc2ncncc2C(=O)c2cc3c(s2)C=C[C@]32NCCc3ccc(Cl)cc32)C[C@@H]1O [Compound 176],–,23.2
NS(=O)(=O)OC[C@H]1C[C@@H](Nc2ncncc2C(=O)c2cc3c(s2)C=C[C@@]32NCCc3ccc(F)cc32)C[C@@H]1O [Compound 177],> 200,–
NS(=O)(=O)OC[C@H]1C[C@@H](Nc2ncncc2C(=O)c2cc3c(s2)C=C[C@]32NCCc3ccc(F)cc32)C[C@@H]1O [Compound 178],≤ 50,–
COc1ccc2c(c1)[C@]1(CCCc3sc(C(=O)c4cncnc4N[C@@H]4C[C@H](COS(N)(=O)=O)[C@@H](O)C4)cc31)NCC2 [Compound 179],> 200,–
COc1ccc2c(c1)[C@@]1(CCCc3sc(C(=O)c4cncnc4N[C@@H]4C[C@H](COS(N)(=O)=O)[C@@H](O)C4)cc31)NCC2 [Compound 180],> 200,–
CCN1Cc2sc(C(=O)c3cncnc3N[C@@H]3C[C@H](COS(N)(=O)=O)[C@@H](O)C3)cc2C2(C1)NCCc1ccc(Cl)cc12 (stereo partly shown) [Compound 181],≤ 50,–
CCN1Cc2sc(C(=O)c3cncnc3N[C@@H]3C[C@H](COS(N)(=O)=O)[C@@H](O)C3)cc2[C@@]2(C1)NCCc1ccc(Cl)cc12 [Compound 182],–,> 1000
CCN1Cc2sc(C(=O)c3cncnc3N[C@@H]3C[C@H](COS(N)(=O)=O)[C@@H](O)C3)cc2[C@]2(C1)NCCc1ccc(Cl)cc12 [Compound 183],–,18.7
CC(C)N1Cc2sc(C(=O)c3cncnc3N[C@@H]3C[C@H](COS(N)(=O)=O)[C@@H](O)C3)cc2C2(C1)NCCc1ccc(Cl)cc12 (stereo partly shown) [Compound 184],≤ 50,–
CC(C)N1Cc2sc(C(=O)c3cncnc3N[C@@H]3C[C@H](COS(N)(=O)=O)[C@@H](O)C3)cc2[C@@]2(C1)NCCc1ccc(Cl)cc12 [Compound 185],–,> 1000
CC(C)N1Cc2sc(C(=O)c3cncnc3N[C@@H]3C[C@H](COS(N)(=O)=O)[C@@H](O)C3)cc2[C@]2(C1)NCCc1ccc(Cl)cc12 [Compound 186],–,16.3
NS(=O)(=O)OC[C@H]1C[C@@H](Nc2ncncc2C(=O)c2cc3c(s2)CN(CC(F)(F)F)CC32NCCc3ccc(Cl)cc32)C[C@@H]1O (stereo partly shown) [Compound 187],≤ 50,–
NS(=O)(=O)OC[C@H]1C[C@@H](Nc2ncncc2C(=O)c2cc3c(s2)CN(CC(F)(F)F)C[C@@]32NCCc3ccc(Cl)cc32)C[C@@H]1O [Compound 188],–,> 1000
